In ChEMBL document CHEMBL1134872, “Isothiazole dioxides: synthesis and inhibition of Trypanosoma brucei protein farnesyltransferase” (2002):
pEC50: −log10 of the molar value.

Assays:
[1] = molecular target: T1, Protein farnesyltransferase (Rattus norvegicus) (UniProt Q04631+Q02293); experiment: Percentage in vitro inhibition of rat protein farnesyltransferase at 50 uM; format: protein-complex assay
[2] = molecular target: T2, geranylgeranyltransferase type-I (Rattus norvegicus) (UniProt P53610+Q04631); experiment: Percentage in vitro inhibition of rat protein geranylgeranyltransferase type-I at 50 uM; format: protein-complex assay
[3] = system: Protein farnesyltransferase (Trypanosoma brucei); experiment: Percentage in vitro inhibition of recombinant Trypanosoma brucei protein farnesyltransferase at 2 uM
[4] = molecular target: T1, Protein farnesyltransferase (Rattus norvegicus); experiment: Percentage in vitro inhibition of rat protein farnesyltransferase at 2 uM; format: protein-complex assay
[5] = molecular target: T2, geranylgeranyltransferase type-I (Rattus norvegicus); experiment: Percentage in vitro inhibition of rat protein geranylgeranyltransferase type-I at 2 uM; format: protein-complex assay
[6] = molecular target: T1, Protein farnesyltransferase (Rattus norvegicus); experiment: Percentage in vitro inhibition of rat protein farnesyltransferase at 100 uM; format: protein-complex assay
[7] = molecular target: T2, geranylgeranyltransferase type-I (Rattus norvegicus); experiment: Percentage in vitro inhibition of rat protein geranylgeranyltransferase type-I at 100 uM; format: protein-complex assay
[8] = system: Protein farnesyltransferase (Trypanosoma brucei); experiment: Percentage in vitro inhibition of recombinant Trypanosoma brucei protein farnesyltransferase at 100 uM
[9] = molecular target: T1, Protein farnesyltransferase (Rattus norvegicus); experiment: Percentage in vitro inhibition of rat protein farnesyltransferase at 5 uM; format: protein-complex assay
[10] = molecular target: T2, geranylgeranyltransferase type-I (Rattus norvegicus); experiment: Percentage in vitro inhibition of rat protein geranylgeranyltransferase type-I at 5 uM; format: protein-complex assay
[11] = system: Trypanosoma brucei; experiment: In vitro dose required to inhibit growth of Trypanosoma brucei; format: functional; conditions: read-out: ED50 (the source's name)
[12] = system: Protein farnesyltransferase (Trypanosoma brucei); experiment: Percentage in vitro inhibition of recombinant Trypanosoma brucei protein farnesyltransferase at 5 uM

| inhibition [1] | inhibition [2] | inhibition [3] | inhibition [6] | inhibition [7] | inhibition [8] | SMILES | further results |
| --- | --- | --- | --- | --- | --- | --- | --- |
| 8% | 20% | 0% |  |  |  | CCN(CC)C1=NS(=O)(=O)C(C2CC(c3ccc(Cl)cc3)=NO2)=C1c1ccc(OC)cc1 (stereo unspecified) |  |
| 2% | 7% | 28% |  |  |  | CCN(CC)C1=NS(=O)(=O)C(C2CC(c3c(C)c(Cl)c(C)c(Cl)c3C)=NO2)=C1c1ccc(OC)cc1 (stereo unspecified) |  |
|  |  | 0% |  |  |  | CCN(CC)C1=NS(=O)(=O)C(C#Cc2ccccc2)=C1c1ccc(OC)cc1 | inhibition [4]: 2%; inhibition [5]: 7% |
|  |  |  | 0% | 26% | 13% | CCN(CC)C1=NS(=O)(=O)C(c2ccccc2)=C1c1ccc(OC)cc1 |  |
| 22% | 0% | 2% |  |  |  | CCN(CC)C1=NS(=O)(=O)C(C2CC(c3ccccc3C)=NO2)=C1c1ccc(OC)cc1 (stereo unspecified) |  |
|  |  |  | 6% | 20% | 52% | CCN(CC)C1=NS(=O)(=O)C(SC2CCCCC2)=C1c1ccc(OC)cc1 |  |
| 21% | 25% | 50% |  |  |  | CCN(CC)C1=NS(=O)(=O)C(C2CC(c3c(C)cc(C)cc3C)=NO2)=C1c1ccc(OC)cc1 (stereo unspecified) | inhibition [9]: 0%; inhibition [10]: 15%; pEC50 [11]: 5.00; inhibition [12]: 66% |
| 18% | 8% | 2% |  |  |  | CCN(CC)C1=NS(=O)(=O)C(C2CC(c3ccc([N+](=O)[O-])cc3)=NO2)=C1c1ccc(OC)cc1 (stereo unspecified) |  |
|  |  |  |  |  |  | CCN(CC)C1=NS(=O)(=O)C=C1c1ccc(OC)cc1 | inhibition [9]: 0%; inhibition [10]: 12%; inhibition [12]: 0% |
|  |  |  | 0% | 28% | 25% | CCN(CC)C1=NS(=O)(=O)C(SC/C=C(\C)CC/C=C(/C)CCC=C(C)C)=C1c1ccc(OC)cc1 |  |
| 22% | 17% | 8% |  |  |  | CCN(CC)C1=NS(=O)(=O)C(C2CC(c3c(C)cccc3C)=NO2)=C1c1ccc(OC)cc1 (stereo unspecified) |  |
| 9% | 12% | 10% |  |  |  | CCOC1C(c2c(C)cc(C)cc2C)=NOC1C1=C(c2ccc(OC)cc2)C(N(CC)CC)=NS1(=O)=O (stereo unspecified) |  |
|  |  |  | 27% | 56% | 43% | CCN(CC)C1=NS(=O)(=O)C(C)=C1c1ccc(OC)cc1 |  |
|  |  |  | 5% | 36% | 7% | CCN(CC)C1=NS(=O)(=O)C(SC)=C1c1ccc(OC)cc1 |  |
| 13% | 17% | 8% |  |  |  | CCN(CC)C1=NS(=O)(=O)C(C2CC(c3ccc(OC)cc3)=NO2)=C1c1ccc(OC)cc1 (stereo unspecified) |  |
| 14% | 45% | 32% |  |  |  | CCN(CC)C1=NS(=O)(=O)C(C2CC(c3c(Cl)cccc3Cl)=NO2)=C1c1ccc(OC)cc1 (stereo unspecified) |  |
| 7% |  | 13% |  |  |  | CCN(CC)C1=NS(=O)(=O)C(C2CC(c3c(C)c(C)c(C)c(C)c3C)=NO2)=C1c1ccc(OC)cc1 (stereo unspecified) |  |
|  |  |  | 3% | 7% | 12% | CCN(CC)C1=NS(=O)(=O)C(c2ccccn2)=C1c1ccc(OC)cc1 |  |
|  |  |  | 5% | 25% | 29% | CCN(CC)C1=NS(=O)(=O)C(c2cn(S(=O)(=O)c3ccccc3)c3ccccc23)=C1c1ccc(OC)cc1 |  |
|  |  |  | 5% | 17% | 62% | CCN(CC)C1=NS(=O)(=O)C(Sc2ccccc2)=C1c1ccc(OC)cc1 |  |
| 8% | 11% | 0% |  |  |  | CCN(CC)C1=NS(=O)(=O)C(c2cc(-c3c(C)cc(C)cc3C)no2)=C1c1ccc(OC)cc1 |  |
